Assay: Critical micelle formation concentration (CMC) by concentration-dependent determination of the surface tension
Assay type: physicochemical
Settings: aqueous solution; from concentration-dependent surface tension
Protocol: The CMC was determined by the concentration-dependent determination of the surface tension. The method is described by, i.a., Elworthy and Mysels; J. Colloid Interface Sci., 21, 331, 1966; Mukerjee, Mysels; The Critical Micelle Conc. Of Aqu. Surfactant Systems, 1971, US National Bureau of Standards and G. Brosowski, M. Rohr, G. Lehmann; Fette, […], Anstrichsmittel [Fats, Soaps, Paints], 75, 335, 1973.

SMILES | Critical Micelle Formation Concentration (CMC)
O=C(CCC(=O)N1CCN(S(=O)(=O)C(F)(F)C(F)(F)C(F)(F)C(F)(F)C(F)(F)C(F)(F)C(F)(F)C(F)(F)F)CC1)Nc1c(I)c(C(=O)N(CC(O)CO)CC(O)CO)c(I)c(C(=O)N(CC(O)CO)CC(O)CO)c1I (stereo not drawn) [Example 4 c, N,N,N′,N′-Tetrakis-(2,3-dihydroxy-propyl)-5-{4-[4-(heptadecafluorooctane-1-sulfonyl)-piperazin-1-yl]-4-oxo-butyrylamino}-2,4,6-triiodo-isophthalamide] | 5.4e-05 mol/L
CN(CC(O)C(O)C(O)C(O)CO)C(=O)c1c(I)c(NC(=O)COCC(=O)N2CCN(S(=O)(=O)C(F)(F)C(F)(F)C(F)(F)C(F)(F)C(F)(F)C(F)(F)C(F)(F)C(F)(F)F)CC2)c(I)c(C(=O)N(C)CC(O)C(O)C(O)C(O)CO)c1I (stereo not drawn) [Example 5 f, 2,4,6-Triiodo-N,N′-dimethyl-5-{2-[2-oxo-2-(4-(heptadecafluorooctane-1-sulfonyl)-piperazin-1-yl]-ethoxy]-acetylamino}-N,N′-bis-(2,3,4,5,6-pentahydroxyhexyl)-isophthalamide] | 0.00012 mol/L
CN(CC(O)C(O)C(O)C(O)CO)C(=O)c1c(I)c(C(=O)N(C)CC(O)C(O)C(O)C(O)CO)c(I)c(N(CC(=O)O)C(=O)COCC(=O)N2CCN(S(=O)(=O)C(F)(F)C(F)(F)C(F)(F)C(F)(F)C(F)(F)C(F)(F)C(F)(F)C(F)(F)F)CC2)c1I (stereo not drawn) [Example 6 e] | 6.9e-05 mol/L
O=C(O)CN(C(=O)COCC(=O)N1CCN(S(=O)(=O)C(F)(F)C(F)(F)C(F)(F)C(F)(F)C(F)(F)C(F)(F)C(F)(F)C(F)(F)F)CC1)c1c(I)c(C(=O)N(CC(O)CO)CC(O)CO)c(I)c(C(=O)N(CC(O)CO)CC(O)CO)c1I (stereo not drawn) [Example 1 e, [{3,5-Bis-[bis-(2,3-dihydroxy-propyl)-carbamoyl]-2,4,6-triiodo-phenyl}-(2-{2-[4-(heptadecafluorooctane-1-sulfonyl)piperazin-1-yl]-2-oxo-ethoxy}-acetyl)-amino]-acetic Acid] | 6.4e-05 mol/L
O=C(O)CN(C(=O)CCC(=O)N1CCN(S(=O)(=O)C(F)(F)C(F)(F)C(F)(F)C(F)(F)C(F)(F)C(F)(F)C(F)(F)C(F)(F)F)CC1)c1c(I)c(C(=O)N(CC(O)CO)CC(O)CO)c(I)c(C(=O)N(CC(O)CO)CC(O)CO)c1I (stereo not drawn) [Example 3 e, [{3,5-Bis-[bis-(2,3-dihydroxy-propyl)-carbamoyl]-2,4,6-triiodo-phenyl}-{4[4-(heptadecafluorooctane-1-sulfonyl)-piperazin-1-yl]-4-oxo-butyryl}-amino)-acetic Acid] | 5.4e-05 mol/L
O=C(COCC(=O)N1CCN(S(=O)(=O)C(F)(F)C(F)(F)C(F)(F)C(F)(F)C(F)(F)C(F)(F)C(F)(F)C(F)(F)F)CC1)Nc1c(I)c(C(=O)N(CC(O)CO)CC(O)CO)c(I)c(C(=O)N(CC(O)CO)CC(O)CO)c1I (stereo not drawn) [Example 2 c] | 6.2e-05 mol/L

From US20030236407A1, “Perfluoroalkyl group-containing micelle-forming triiodoaromatic compounds, process for their production and their use as contrast media” (Schering AG, priority 2002, published 2003)
